Reference: ChEMBL document CHEMBL4330131, “The identification of novel small-molecule inhibitors targeting WDR5-MLL1 interaction through fluorescence polarization based high-throughput screening” (Bioorg Med Chem Lett, 2019)
Blank lines part the entries; values can stand above or below the compound they belong to.

Columns and labels:
[1] = target: T1, WD repeat-containing protein 5 (Homo sapiens, UniProt P61964); test: Displacement of Ac-ARTEVHLRKS-(Ahx)-(Ahx)-K(5-FAM)-NH2 from recombinant full-length human N-terminal His6-tagged WDR5 (1 to 334 residues) expressed in Escherichia coli BL21 (DE3) after 2 hrs by fluorescence polarization assay
[2] = target: Histone-lysine N-methyltransferase 2D (Homo sapiens, UniProt O14686); test: Inhibition of MLL2 (unknown origin) using SAM as substrate preincubated for 15 mins followed by substrate addition and measured after 1 hr by Alphalisa assay
[3] = target: Protein arginine N-methyltransferase 1 (Homo sapiens, UniProt Q99873); test: Inhibition of PRMT1 (unknown origin) using SAM as substrate preincubated for 15 mins followed by substrate addition and measured after 1 hr by Alphalisa assay
Chain of Protein arginine N-methyltransferase 1 (Q99873 whole entry): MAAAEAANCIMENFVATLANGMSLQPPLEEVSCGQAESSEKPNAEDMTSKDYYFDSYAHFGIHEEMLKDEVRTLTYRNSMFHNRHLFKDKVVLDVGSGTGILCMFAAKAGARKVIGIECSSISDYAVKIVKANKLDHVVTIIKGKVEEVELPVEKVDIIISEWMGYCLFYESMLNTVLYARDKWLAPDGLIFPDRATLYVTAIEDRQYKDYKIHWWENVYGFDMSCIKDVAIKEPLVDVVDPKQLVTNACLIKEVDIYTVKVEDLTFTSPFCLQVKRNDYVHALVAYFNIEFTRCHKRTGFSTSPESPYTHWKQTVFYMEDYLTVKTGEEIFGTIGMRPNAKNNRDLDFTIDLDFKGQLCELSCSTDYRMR

K562 = test: Antiproliferative activity against human K562 cells assessed as cell growth inhibition after 5 days by Celltiter-Glo luminescent assay; type: functional, cell-based; settings: K562, 120 h
[4] = target: T2, Histone-lysine N-methyltransferase EHMT2 (Homo sapiens, UniProt Q96KQ7); test: Inhibition of G9a (unknown origin) using SAM as substrate preincubated for 15 mins followed by substrate addition and measured after 1 hr by Alphalisa assay
T2 sequence (Q96KQ7 whole entry): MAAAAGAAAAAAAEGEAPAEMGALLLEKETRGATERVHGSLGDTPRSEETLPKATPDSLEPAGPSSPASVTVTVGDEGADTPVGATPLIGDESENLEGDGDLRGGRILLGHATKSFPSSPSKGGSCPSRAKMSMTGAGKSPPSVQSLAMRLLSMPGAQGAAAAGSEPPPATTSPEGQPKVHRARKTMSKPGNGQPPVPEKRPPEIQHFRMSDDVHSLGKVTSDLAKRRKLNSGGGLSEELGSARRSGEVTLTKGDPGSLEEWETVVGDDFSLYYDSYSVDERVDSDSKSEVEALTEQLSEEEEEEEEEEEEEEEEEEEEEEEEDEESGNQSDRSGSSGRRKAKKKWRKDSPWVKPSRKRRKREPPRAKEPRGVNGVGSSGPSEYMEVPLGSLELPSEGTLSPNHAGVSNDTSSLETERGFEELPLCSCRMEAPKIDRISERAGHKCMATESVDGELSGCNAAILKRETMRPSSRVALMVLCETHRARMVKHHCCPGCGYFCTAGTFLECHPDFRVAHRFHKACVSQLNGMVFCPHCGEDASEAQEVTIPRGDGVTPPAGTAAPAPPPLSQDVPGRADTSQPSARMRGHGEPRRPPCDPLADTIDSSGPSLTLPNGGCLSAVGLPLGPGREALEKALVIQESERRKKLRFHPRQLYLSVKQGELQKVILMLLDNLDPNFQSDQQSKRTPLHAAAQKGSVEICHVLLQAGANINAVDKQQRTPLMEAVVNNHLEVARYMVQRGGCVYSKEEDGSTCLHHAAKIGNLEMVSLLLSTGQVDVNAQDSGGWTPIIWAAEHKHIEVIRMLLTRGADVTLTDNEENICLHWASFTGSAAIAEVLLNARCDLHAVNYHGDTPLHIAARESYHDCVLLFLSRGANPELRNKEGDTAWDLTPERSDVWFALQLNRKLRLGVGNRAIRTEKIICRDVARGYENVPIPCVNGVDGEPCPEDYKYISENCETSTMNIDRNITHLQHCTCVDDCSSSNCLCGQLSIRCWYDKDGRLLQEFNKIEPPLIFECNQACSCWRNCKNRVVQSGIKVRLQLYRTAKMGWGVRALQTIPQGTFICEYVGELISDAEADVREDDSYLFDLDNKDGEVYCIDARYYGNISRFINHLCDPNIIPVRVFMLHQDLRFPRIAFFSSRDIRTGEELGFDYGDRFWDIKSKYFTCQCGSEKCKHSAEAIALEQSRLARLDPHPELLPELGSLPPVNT

[5] = target: T1, WD repeat-containing protein 5; test: Binding affinity to recombinant full-length human N-terminal His6-tagged WDR5 (1 to 334 residues) expressed in Escherichia coli BL21 (DE3) by surface plasmon resonance analysis
[6] = target: Histone-lysine N-methyltransferase SETD1B (Homo sapiens, UniProt Q9UPS6); test: Inhibition of SETD1B (unknown origin) using SAM as substrate preincubated for 15 mins followed by substrate addition and measured after 1 hr by Alphalisa assay
Chain of Histone-lysine N-methyltransferase SETD1B (Q9UPS6 whole entry, the tested form may be a part): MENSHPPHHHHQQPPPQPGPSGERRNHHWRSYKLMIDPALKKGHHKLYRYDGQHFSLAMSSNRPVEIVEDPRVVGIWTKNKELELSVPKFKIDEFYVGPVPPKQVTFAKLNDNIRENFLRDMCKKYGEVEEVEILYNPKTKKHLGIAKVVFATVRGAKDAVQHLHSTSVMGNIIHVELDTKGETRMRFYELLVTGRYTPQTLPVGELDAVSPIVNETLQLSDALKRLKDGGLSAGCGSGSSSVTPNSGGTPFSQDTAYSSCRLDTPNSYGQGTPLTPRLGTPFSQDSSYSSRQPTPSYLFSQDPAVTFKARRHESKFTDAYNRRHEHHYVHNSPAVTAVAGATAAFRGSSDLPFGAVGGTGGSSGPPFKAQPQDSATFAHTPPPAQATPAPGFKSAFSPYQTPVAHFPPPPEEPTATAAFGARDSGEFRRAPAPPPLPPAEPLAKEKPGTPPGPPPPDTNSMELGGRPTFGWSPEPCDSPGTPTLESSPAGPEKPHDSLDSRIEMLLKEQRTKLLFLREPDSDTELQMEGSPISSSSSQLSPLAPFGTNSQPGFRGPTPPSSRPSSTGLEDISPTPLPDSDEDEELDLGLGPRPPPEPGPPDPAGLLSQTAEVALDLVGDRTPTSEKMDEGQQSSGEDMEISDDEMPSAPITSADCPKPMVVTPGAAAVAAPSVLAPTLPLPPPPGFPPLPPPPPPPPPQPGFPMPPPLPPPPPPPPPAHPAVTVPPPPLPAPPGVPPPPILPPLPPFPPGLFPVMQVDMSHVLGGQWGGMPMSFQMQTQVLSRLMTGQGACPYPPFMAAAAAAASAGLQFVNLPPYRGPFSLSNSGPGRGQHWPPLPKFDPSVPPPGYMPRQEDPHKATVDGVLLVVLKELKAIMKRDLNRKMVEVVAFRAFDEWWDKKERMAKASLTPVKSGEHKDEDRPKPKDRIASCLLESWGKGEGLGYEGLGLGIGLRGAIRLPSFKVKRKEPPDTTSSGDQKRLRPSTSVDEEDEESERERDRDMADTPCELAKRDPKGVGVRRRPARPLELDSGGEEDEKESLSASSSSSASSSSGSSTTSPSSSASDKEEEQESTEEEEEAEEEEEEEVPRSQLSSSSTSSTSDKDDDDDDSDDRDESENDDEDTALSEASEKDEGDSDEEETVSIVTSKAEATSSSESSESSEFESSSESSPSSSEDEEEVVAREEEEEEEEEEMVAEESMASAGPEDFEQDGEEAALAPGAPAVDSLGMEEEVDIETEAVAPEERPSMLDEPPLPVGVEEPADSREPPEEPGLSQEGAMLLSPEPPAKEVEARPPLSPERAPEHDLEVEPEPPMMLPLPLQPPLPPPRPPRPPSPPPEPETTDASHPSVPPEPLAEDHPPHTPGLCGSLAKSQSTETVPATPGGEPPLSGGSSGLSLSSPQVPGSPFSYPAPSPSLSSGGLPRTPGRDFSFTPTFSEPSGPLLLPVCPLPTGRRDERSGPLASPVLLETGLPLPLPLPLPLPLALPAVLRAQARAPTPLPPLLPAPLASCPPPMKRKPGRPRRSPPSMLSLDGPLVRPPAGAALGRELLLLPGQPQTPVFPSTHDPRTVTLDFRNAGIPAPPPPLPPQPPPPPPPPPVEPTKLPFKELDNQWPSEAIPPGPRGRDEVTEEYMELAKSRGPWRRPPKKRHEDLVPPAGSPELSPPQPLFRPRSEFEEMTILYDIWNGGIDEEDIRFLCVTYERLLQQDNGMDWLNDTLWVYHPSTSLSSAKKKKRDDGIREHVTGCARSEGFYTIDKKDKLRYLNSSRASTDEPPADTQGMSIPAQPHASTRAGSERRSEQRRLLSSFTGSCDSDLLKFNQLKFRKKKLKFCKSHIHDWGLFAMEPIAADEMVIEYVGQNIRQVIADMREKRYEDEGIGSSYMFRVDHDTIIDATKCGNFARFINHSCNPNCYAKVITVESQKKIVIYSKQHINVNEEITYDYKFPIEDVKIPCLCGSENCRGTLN

MV4-11 = test: Antiproliferative activity against human MV4-11 cells harboring MLL-AF4 fusion protein assessed as cell growth inhibition after 5 days by Celltiter-Glo luminescent assay; type: functional, cell-based; settings: MV4-11, 120 h
[7] = target: T1, WD repeat-containing protein 5; test: Displacement of 5-FAM labelled tracer from WDR5 (unknown origin) by fluorescence polarization assay
[8] = target: T1, WD repeat-containing protein 5; test: Displacement of fluorescence-labelled Ac-ARA peptide from WDR5 (unknown origin) by fluorescence polarization assay

Structure (SMILES): CCCCOc1ccc(S(=O)(=O)Nc2ccccc2C(=O)O)cc1C
IC50 [1]: 22 µM

Structure (SMILES): CCCCOc1ccc(S(=O)(=O)Nc2cccc(C(=O)O)c2)cc1C
IC50 [1]: 30 µM

Structure (SMILES): CCCCOc1ccc(S(=O)(=O)Nc2ccc(C(=O)O)cc2)cc1C
IC50 [2]: > 100 µM | IC50 [3]: > 100 µM | IC50 (K562): 72.1 µM | IC50 [1]: 13 µM | IC50 [4]: > 100 µM | Kd [5]: 15.8 µM | IC50 [6]: > 100 µM | IC50 (MV4-11): 31.2 µM

Structure (SMILES): Cc1c(Cl)ccc(S(=O)(=O)Nc2cccc(C(=O)O)c2)c1Cl
IC50 [1]: 13 to 13.1 µM

Structure (SMILES): COc1ccc(S(=O)(=O)Nc2ccc(C(=O)O)cc2)cc1C(C)(C)C
IC50 [1]: 48 µM

Results, then the compound that gave them:

IC50 [1]: 22 µM
Structure (SMILES): O=C(O)c1cc(NS(=O)(=O)c2ccc(Cl)cc2)cc(C(=O)O)c1

Ki [7]: < 0.001 µM | IC50 [8]: 0.0045 µM
Structure (SMILES): CCC(CC)(NC(=O)C(C)C)C(=O)N[C@@H](CCCNC(=N)N)C(=O)NC1(C(=O)NC(c2ccc(Cl)cc2)c2ccc(Cl)cc2)CCCC1
